Side effects and ED50 data for 31 compounds are collected here from patent publication US4031093A, “1,6-Dihydro-6-oxo-2-(ortho-substituted phenyl)pyrimidine-5-carboxylic acid derivatives” (priority 1976, dated 1977).

SMILES strings stand for the structures.

System in one data set: not given
Assay: not given
The note with it: bronchial asthma treatment; cited from earlier work.
As for `CN1[C@@H]2CC[C@H]1C[C@@H](OC(=O)C(CO)c1ccccc1)C2` (stereo partly shown) [atropine], the side effects result is “undesirable side effects, e.g. cardiac stimulation and gastrointestinal distress”.
`CNC[C@H](O)c1ccc(O)c(O)c1` [epinephrine]: the side effects entry was “undesirable side effects, e.g. cardiac stimulation and gastrointestinal distress”.
Turning to `CC(C)NCC(O)c1ccc(O)c(O)c1` (stereo not shown) [isoproterenol], the side effects entry was “undesirable side effects, e.g. cardiac stimulation and gastrointestinal distress”.

The next data set deals with reagin-mediated rat Passive Cutaneous Anaphylaxis (PCA). Nature of the data set: reagin-mediated rat Passive Cutaneous Anaphylaxis (PCA) screening test. The format is in vivo, rat (Sprague-Dawley). The note with it: iv, Table I, i.v., 1-5 minutes prior to antigen challenge, esters suspended in Tween/CMC, read-out: ID50 (dose of compound that inhibits 50% of the response), ethyl esters, i.v. As for the experimental part: The reagin-mediated rat Passive Cutaneous Anaphylaxis (PCA) screening test used to evaluate the present compounds is generally regarded as one of the best animal models for use in predicting the antiallergy activity of test compounds in man. Briefly, the method consists of passive sensitization of skin sites on the test animals with reaginic antibodies followed after 24 hours by administration of the test drug and antigen challenge. The allergic response is measured by use of Evans' blue dye and is evaluated by the spot diameter at the injection site. Details of the test are provided below.
A substituted ovalbumin antigen is used both as immunogen and challenging antigen. The antigen is prepared as follows: 500 mg. ovalbumin (EA) and 500 mg. K2 CO3 are dissolved in 25 ml. distilled H2 O and stirred at room temperature for 5 minutes. Five hundred (500) mg. dinitrobenzene sulfonic acid, Na^+ salt, (previously recrystallized from hot absolute ethanol) is then added slowly with continued stirring. The reaction mixture is then immediately placed in the dark and allowed to proceed for 2 hours with constant stirring. After 2 hours the mixture is placed in suitable dialysis tubing and dialyzed against 5 changes (4 liters each) of distilled H2 O at 5° C. After dialysis the product is lyophilized and stored at room temperature in a brown or amber container. The antigen obtained will appear as a light yellow, amorphous solid which is very soluble in water or saline. It is designated as DNP denatured ovalbumin (DNP-d EA).
Adult, male Sprague-Dawley rats are used as a source of reagin-rich antisera for the PCA model. Immunization is by a combination of DNP-d EA on Al (OH)3 gel and B. pertussis vaccine. Preparation of the DNP-d EA - gel immunogen is as follows: Dissolve the DNP-d EA in TBS so as to give a concentration of 10 mg./ml. Slowly add 1 ml. of this solution to 10 ml. Al(OH)3 gel (10 mg. solids/ml.) with constant stirring at room temperature. Stir the mixture an additional 30 minutes to insure a uniform adsorption of antigen on gel.
The resulting preparation is then used in combination with phase I B. pertussis vaccine to immunize male S/D rats as follows: For each rat administer 0.1 ml. DNP-d EA - gel suspension intramuscularly in each hind leg (200 μg DNP-d EA and 2 mg. gel total dose). Follow these injections by the intraperitoneal administration of 1.0 ml. B. pertussis vaccine (10-20 × 10^9 organisms). The use of light ether anesthesia during this procedure is recommended to insure proper intramuscular and intraperitoneal injections. Nine days following immunization (but no longer than 10) the animals are exsanguinated by cardiac puncture or abdominal aorta cannulation under ether or pentobarbital anesthesia. The collected whole blood is allowed to clot, the serum separated by centrifugation and the individual serum samples stored frozen until assayed for IgE content.
Individual serum samples should be screened for reaginic antibody concentration before being pooled with other sera, as not all rats respond to immunization procedures with reagin production. A 1:50 saline dilution of serum from each immunized rat is used for this purpose. Intradermal injections of 0.05 ml. of the diluted sera are made in the shaven backs of two small female recipient rats, 100-120 gms. Several serum samples can be tested simultaneously in recipient animals. After a 24 to 48 hour latent period antigen challenge is accomplished by […] administration to each rat of 1 mg. DNP-d EA in 0.5 ml. 0.5% Evans' blue dye in saline. Sera which show positive PCA reactions at the 1:50 dilution, as measured 20 to 30 minutes post-challenge are pooled, dispensed in small aliquots and stored at -70° C. or lower until used. Negative sera may be discarded.
The IgE titer of the antisera pool should then be determined. […]
`CCOC(=O)c1cnc(-c2ccccc2OCC)[nH]c1=O` [Example 1, Ethyl 1,6-dihydro-6-oxo-2-(2-ethoxyphenyl)pyrimidine-5-carboxylate]: the ED50 is 0.4 mg/kg.

Staying with this data set, now noted: iv, Table II, i.v., 1-5 minutes prior to antigen challenge, acids solubilized in aqueous sodium bicarbonate, read-out: ID50 (dose of compound that inhibits 50% of the response), 5-carboxylic acids, i.v.
On to `CCCOc1ccccc1-c1ncc(C(=O)O)c(=O)[nH]1` [Example 21, 1,6-Dihydro-6-oxo-2-(2-n-propoxyphenyl)pyrimidine-5-carboxylic acid], for which the ED50 was roughly 0.1 mg/kg.
Same read-out and setting: the figure for `CCOc1ccccc1-c1ncc(C(=O)O)c(=O)[nH]1` [Example 20, 1,6-Dihydro-6-oxo-2-(2-ethoxyphenyl)pyrimidine-5-carboxylic acid] is 0.07 mg/kg.

Staying with this data set, now noted: po, Table I, p.o., 10 minutes prior to antigen challenge, esters suspended in Tween/CMC, read-out: ID50 (dose of compound that inhibits 50% of the response), ethyl esters, p.o.
As for `CCCOc1ccccc1-c1ncc(C(=O)OCC)c(=O)[nH]1` [Example 5, Ethyl 1,6-dihydro-6-oxo-2-(2-n-propoxyphenyl)pyrimidine-5-carboxylate], the ED50 is roughly 5 mg/kg.
The same measure, in the same setting: then `CCCOc1ccc(OC)cc1-c1ncc(C(=O)OCC)c(=O)[nH]1` [Example 19, Ethyl 1,6-dihydro-6-oxo-2-(5-methoxy-2-n-propoxyphenyl)-pyrimidine-5-carboxylate], with 0.7 mg/kg; and `CCOC(=O)c1cnc(-c2ccccc2OCC)[nH]c1=O` [Example 1, Ethyl 1,6-dihydro-6-oxo-2-(2-ethoxyphenyl)pyrimidine-5-carboxylate], with roughly 2 mg/kg; and `CCOC(=O)c1ccc(OCC)c(-c2ncc(C(=O)OCC)c(=O)[nH]2)c1` [Example 16, Ethyl 1,6-dihydro-6-oxo-2-(5-carbethoxy-2-ethoxyphenyl)pyrimidine-5-carboxylate], with 1 mg/kg.
The same measure, in the same setting: the figure for `CCOC(=O)c1cnc(-c2cc(OC)ccc2OC)[nH]c1=O` [Example 15A, Ethyl 1,6-dihydro-6-oxo-2-(2,5-dimethoxyphenyl)pyrimidine-5-carboxylate] is 5 mg/kg.
The same measure, in the same setting: the figure for `CCOC(=O)c1cnc(-c2ccccc2OC(C)CC)[nH]c1=O` (racemic) [Example 10, Ethyl (±)-1,6-dihydro-6-oxo-2-(2-sec-butoxyphenyl)pyrimidine-5-carboxylate] is 0.5 mg/kg; for `CCOC(=O)c1cnc(-c2ccccc2OC(C)C)[nH]c1=O` [Example 7, Ethyl 1,6-dihydro-6-oxo-2-(2-isopropoxyphenyl)pyrimidine-5-carboxylate] it is roughly 2 mg/kg; for `CCOC(=O)c1cnc(-c2cc(Cl)ccc2OCC)[nH]c1=O` [Example 15B, Ethyl 1,6-dihydro-6-oxo-2-(5-chloro-2-ethoxyphenyl)pyrimidine-5-carboxylate] it is roughly 0.5 mg/kg.
As for `CCOC(=O)c1cnc(-c2cc(OC)ccc2OCC)[nH]c1=O` [Example 15C, Ethyl 1,6-dihydro-6-oxo-2-(2-ethoxy-5-methoxyphenyl)pyrimidine-5-carboxylate], the ED50 is 0.3 mg/kg.
On the same count and under the same terms, then `CCOC(=O)c1cnc(-c2cc(N)ccc2OCC)[nH]c1=O` [Example 17, Ethyl 1,6-dihydro-6-oxo-2-(5-amino-2-ethoxyphenyl)pyrimidine-5-carboxylate], with 0.5 mg/kg.
The same measure, in the same setting: the figure for `CCOC(=O)c1cnc(-c2ccccc2OCC(C)C)[nH]c1=O` [Example 12, Ethyl 1,6-dihydro-6-oxo-2-(2-isobutoxyphenyl)pyrimidine-5-carboxylate] is roughly 3 mg/kg; for `CCOC(=O)c1cnc(-c2ccccc2OCC2CC2)[nH]c1=O` [Example 18, Ethyl 1,6-dihydro-6-oxo-2-(2-cyclopropylmethoxyphenyl)pyrimidine-5-carboxylate] it is roughly 0.3 mg/kg; for `CCCCOc1ccccc1-c1ncc(C(=O)OCC)c(=O)[nH]1` [Example 9, Ethyl 1,6-dihydro-6-oxo-2-(2-n-butoxyphenyl)pyrimidine-5-carboxylate] it is 0.5 mg/kg.
On to `C=CCOc1ccccc1-c1ncc(C(=O)OCC)c(=O)[nH]1` [Example 8, Ethyl 1,6-dihydro-6-oxo-2-(2-allyloxyphenyl)pyrimidine-5-carboxylate], for which the ED50 is 0.5 mg/kg.

The data set is the same for the next values; noted with them: po, Table II, p.o., 10 minutes prior to antigen challenge, acids solubilized in aqueous sodium bicarbonate, read-out: ID50 (dose of compound that inhibits 50% of the response), 5-carboxylic acids, p.o.
Consider `CC(C)COc1ccccc1-c1ncc(C(=O)O)c(=O)[nH]1` [Example 24C, 1,6-Dihydro-6-oxo-2-(2-isobutoxyphenyl)pyrimidine-5-carboxylic acid], for which the ED50 was determined as 0.5 mg/kg.
Same read-out and setting: the figure for `CCOc1ccc(N(C)C)cc1-c1ncc(C(=O)O)c(=O)[nH]1` [Example 26, 1,6-Dihydro-6-oxo-2-(5-dimethylamino-2-ethoxyphenyl)pyrimidine-5-carboxylicacid] is 0.3 mg/kg.
Same read-out and setting: then `CCC(C)Oc1ccccc1-c1ncc(C(=O)O)c(=O)[nH]1` (racemic) [Example 24B, (±)-1,6-Dihydro-6-oxo-2-(2-sec-butoxyphenyl)pyrimidine-5-carboxylic acid], with 0.5 mg/kg; and `C=CCOc1ccccc1-c1ncc(C(=O)O)c(=O)[nH]1` [Example 24A, 1,6-Dihydro-6-oxo-2-(2-allyloxyphenyl)pyrimidine-5-carboxylic acid], with 0.5 mg/kg; and `CCCCOc1ccccc1-c1ncc(C(=O)O)c(=O)[nH]1` [Example 23, 1,6-Dihydro-6-oxo-2-(2-n-butoxyphenyl)pyrimidine-5-carboxylic acid], with 0.5 mg/kg.
On the same count and under the same terms, then `COc1ccc(OC)c(-c2ncc(C(=O)O)c(=O)[nH]2)c1` [Example 24D, 1,6-Dihydro-6-oxo-2-(2,5-dimethoxyphenyl)pyrimidine-5-carboxylic acid], with 1 mg/kg; and `CC(C)Oc1ccccc1-c1ncc(C(=O)O)c(=O)[nH]1` [Example 22, 1,6-Dihydro-6-oxo-2-(2-isopropoxyphenyl)pyrimidine-5-carboxylic acid], with 0.8 mg/kg.
As to `CCCOc1ccccc1-c1ncc(C(=O)O)c(=O)[nH]1` [Example 21, 1,6-Dihydro-6-oxo-2-(2-n-propoxyphenyl)pyrimidine-5-carboxylic acid], the ED50 amounted to 0.9 mg/kg.
The same measure, in the same setting: then `CCOc1ccc(Cl)cc1-c1ncc(C(=O)O)c(=O)[nH]1` [Example 24E, 1,6-Dihydro-6-oxo-2-(5-chloro-2-ethoxyphenyl)pyrimidine-5-carboxylic acid], with 0.5 mg/kg; and `CCOc1ccccc1-c1ncc(C(=O)O)c(=O)[nH]1` [Example 20, 1,6-Dihydro-6-oxo-2-(2-ethoxyphenyl)pyrimidine-5-carboxylic acid], with 0.5 mg/kg; and `CCOc1ccc(OC)cc1-c1ncc(C(=O)O)c(=O)[nH]1` [Example 24G, 1,6-Dihydro-6-oxo-2-(2-ethoxy-5-methoxyphenyl)pyrimidine-5-carboxylic acid], with 0.2 mg/kg.
On the same count and under the same terms, then `O=C(O)c1cnc(-c2ccccc2OCC2CC2)[nH]c1=O` [Example 25, 1,6-Dihydro-6-oxo-2-(2-cyclopropylmethoxyphenyl)pyrimidine-5-carboxylic acid], with roughly 0.1 mg/kg; and `CCCOc1ccc(OC)cc1-c1ncc(C(=O)O)c(=O)[nH]1` [Example 27, 1,6-Dihydro-6-oxo-2-(5-methoxy-2-n-propoxyphenyl)pyrimidine-5-carboxylic acid], with 0.3 mg/kg.
Take `CCOc1ccc(N)cc1-c1ncc(C(=O)O)c(=O)[nH]1` [Example 24F, 1,6-Dihydro-6-oxo-2-(5-amino-2-ethoxyphenyl)pyrimidine-5-carboxylic acid]: the ED50 worked out at 0.9 mg/kg.
